Columns and labels:
NCI-H1155 [1] = assay: Cytotoxicity against human NCI-H1155 cells incubated for 4 days in presence of sodium oleate; format: functional, cell-based; conditions: NCI-H1155, 96 h
NCI-H1155 [2] = assay: Cytotoxicity against human NCI-H1155 cells expressing CYP4F11 incubated for 4 days; format: functional, cell-based; conditions: NCI-H1155, 96 h
NCI-H1155 [3] = assay: Cytotoxicity against human NCI-H1155 cells expressing pLVX empty vector incubated for 4 days; format: functional, cell-based; conditions: NCI-H1155, 96 h
NCI-H1155 [4] = assay: Cytotoxicity against human NCI-H1155 cells expressing CYP4F11 incubated for 4 days in presence of sodium oleate; format: functional, cell-based; conditions: NCI-H1155, 96 h
[5] = Half life in mouse liver S9 fraction by LC-MS/MS analysis; format: ADME, subcellular
NCI-H2122 [6] = assay: Cytotoxicity against human NCI-H2122 cells incubated for 4 days; format: functional, cell-based; conditions: NCI-H2122, 96 h
[7] = target: T1, Acyl-CoA desaturase 1 (Mus musculus) (UniProt P13516); assay: Inhibition of SCD1 in CD1 mouse liver at 3 uM using stearoyl [9,10-3H] CoA as substrate and NADPH incubated for 2 hrs by scintillation counting method
T1 sequence (whole entry): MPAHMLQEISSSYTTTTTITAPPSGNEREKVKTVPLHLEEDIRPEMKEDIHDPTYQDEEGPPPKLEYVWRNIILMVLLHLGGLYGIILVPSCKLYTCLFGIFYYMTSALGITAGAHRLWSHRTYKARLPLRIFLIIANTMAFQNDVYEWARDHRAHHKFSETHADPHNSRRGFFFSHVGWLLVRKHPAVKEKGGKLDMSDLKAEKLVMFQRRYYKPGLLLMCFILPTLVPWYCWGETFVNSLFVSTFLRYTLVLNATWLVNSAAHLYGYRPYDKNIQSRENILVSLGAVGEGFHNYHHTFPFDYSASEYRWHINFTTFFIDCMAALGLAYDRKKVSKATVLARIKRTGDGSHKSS

[8] = Half life in human NCI-H1155 cells at 500 nM by LC-MS/MS analysis; format: ADME, cell-based
CYP4F11 = target: T2, CYP4F11 (Homo sapiens, UniProt Q9HBI6); assay: Drug metabolism in human NCI-H1155 cells assessed as CYP4F11-meidated O-demethylation by measuring half life at 500 nM by LC-MS/MS analysis; format: ADME, cell-based
T2 sequence (Q9HBI6 whole entry): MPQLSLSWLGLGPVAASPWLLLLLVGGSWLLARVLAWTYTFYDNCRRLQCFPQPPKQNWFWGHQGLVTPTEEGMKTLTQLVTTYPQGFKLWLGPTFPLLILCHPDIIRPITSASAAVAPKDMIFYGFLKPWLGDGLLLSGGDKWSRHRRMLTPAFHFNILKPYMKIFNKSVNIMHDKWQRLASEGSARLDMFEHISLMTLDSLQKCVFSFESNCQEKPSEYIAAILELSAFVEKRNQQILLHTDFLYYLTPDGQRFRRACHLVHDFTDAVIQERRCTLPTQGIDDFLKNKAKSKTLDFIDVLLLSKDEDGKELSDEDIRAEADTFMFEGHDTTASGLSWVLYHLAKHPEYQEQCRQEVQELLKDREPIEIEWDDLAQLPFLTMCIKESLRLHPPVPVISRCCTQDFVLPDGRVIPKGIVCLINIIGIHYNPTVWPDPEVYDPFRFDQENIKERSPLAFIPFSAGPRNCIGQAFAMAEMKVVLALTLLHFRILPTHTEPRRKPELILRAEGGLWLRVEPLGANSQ

[9] = Drug level in human NCI-H1155 cells after 4 hrs by LC-MS/MS analysis; format: ADME, cell-based; conditions: nci-h1155, 4 h
NCI-H1155 [10] = assay: Ratio of EC50 for cytotoxicity against human NCI-H1155 cells expressing CYP4F11 incubated for 4 days in presence of sodium oleate to EC50 for cytotoxicity against human NCI-H1155 cells expressing CYP4F11 incubated for 4 days in absence of sodium oleate; format: functional
NCI-H2122 [11] = assay: Cytotoxicity against human NCI-H2122 cells; format: functional, cell-based
NCI-H460 [12] = assay: Cytotoxicity against human NCI-H460 cells; format: functional, cell-based
HCC95 [13] = assay: Cytotoxicity against human HCC95 cells; format: functional, cell-based
HCC44 [14] = assay: Cytotoxicity against human HCC44 cells; format: functional, cell-based
NCI-H1155 [15] = assay: Cytotoxicity against human NCI-H1155 cells; format: functional, cell-based
NCI-H1395 = assay: Cytotoxicity against human NCI-H1395 cells; format: functional, cell-based
[16] = Cytotoxicity against human NCI-H1819 cells; format: functional, cell-based
NCI-H1993 = assay: Cytotoxicity against human NCI-H1993 cells; format: functional, cell-based
NCI-H2009 = assay: Cytotoxicity against human NCI-H2009 cells; format: functional, cell-based
[17] = Cytotoxicity against human NCI-H2073 cells; format: functional, cell-based
[18] = Cytotoxicity against human HCC366 cells; format: functional, cell-based
HCC4017 = assay: Cytotoxicity against human HCC4017 cells; format: functional, cell-based
NCI-H2122 [19] = assay: Cytotoxicity against human NCI-H2122 cells at > 50 uM relative to control; format: functional
NCI-H460 [20] = assay: Cytotoxicity against human NCI-H460 cells at > 50 uM relative to control; format: functional
HCC95 [21] = assay: Cytotoxicity against human HCC95 cells at > 50 uM relative to control; format: functional
HCC44 [22] = assay: Cytotoxicity against human HCC44 cells at > 50 uM relative to control; format: functional
[23] = target: T1, Acyl-CoA desaturase 1 (Mus musculus); assay: Inhibition of SCD1 in CD1 mouse liver at 100 nM using stearoyl [9,10-3H] CoA as substrate and NADPH incubated for 2 hrs by scintillation counting method

| Structure (SMILES) | EC50 (NCI-H1155 [1]) [µM] | EC50 (NCI-H1155 [2]) [µM] | EC50 (NCI-H1155 [3]) [µM] | EC50 (NCI-H1155 [4]) [µM] | EC50 (NCI-H2122 [6]) [µM] | inhibition [23] [%] | other results |
| --- | --- | --- | --- | --- | --- | --- | --- |
| O=C(NCCc1ccc(O)cc1)C(=O)Nc1ccc(Cl)cc1 | 37 | 0.37 | 0.39 | 21 | 0.26 |  | half-life [5]: 1.18 h |
| COc1ccc(CC(C)NC(=O)C(=O)Nc2ccc(Cl)cc2)cc1 (stereo not given) | 12 | 16.4 | 9.5 | 7.6 | 3.53 |  |  |
| C#CCOc1ccc(C(=O)c2ccc(NC(=O)C(=O)NCCc3ccc(O)cc3)cc2)cc1 | > 50 | 0.21 | 0.008 | > 50 | 0.058 |  | inhibition [7]: > 98%; half-life [5]: 0.217 h |
| COc1ccc(CCNC(=O)NC(=O)c2ccc(COc3ccccc3)cc2)cc1 | > 50 | 0.034 | > 50 | 3.6 | 0.01 |  | half-life at 0.5 µM [8]: > 48 h; half-life at 0.5 µM (CYP4F11): 7.5 h; half-life [5]: 2.63 h; Drug uptake [9]: 1670 nM; Ratio EC50 (NCI-H1155 [10]): 100 |
| COc1ccc(CCNC(=O)C(=O)NC2CC2)cc1 | > 50 | > 50 | > 50 | > 50 | > 50 |  | half-life at 0.5 µM [8]: > 48 h; half-life at 0.5 µM (CYP4F11): 4.7 h; Drug uptake [9]: 80 nM |
| COc1ccc(CCNC(=O)C(=O)Nc2ccc(Cl)cc2)cc1 | > 50 | 0.67 | 36 | > 50 | 0.22 |  | EC50 (NCI-H2122 [11]): < 1 µM; EC50 (NCI-H460 [12]): < 1 µM; EC50 (HCC95 [13]): < 1 µM; EC50 (HCC44 [14]): < 1 µM; EC50 (NCI-H1155 [15]): > 10 µM; EC50 (NCI-H1395): > 10 µM; EC50 [16]: > 10 µM; EC50 (NCI-H1993): > 10 µM; EC50 (NCI-H2009): > 10 µM; EC50 [17]: > 10 µM; EC50 [18]: > 10 µM; EC50 (HCC4017): > 10 µM; half-life [5]: 0.117 h; Activity (NCI-H2122 [19]): >95%; Activity (NCI-H460 [20]): >95%; Activity (HCC95 [21]): >95%; Activity (HCC44 [22]): >95% |
| COc1ccc(C(C)CNC(=O)C(=O)Nc2ccc(Cl)cc2)cc1 (stereo not given) | > 50 | > 50 | > 50 | > 50 | 3.66 |  |  |
| CC(Cc1ccc(O)cc1)NC(=O)C(=O)Nc1ccc(Cl)cc1 (stereo not given) | 10 | 11.2 | 11.7 | 13 | 5.1 | 24 |  |
| O=C(NCCc1ccc(O)cc1)c1ccc2ccccc2n1 | 46 | 17 | 18 | 35 | > 50 | 31 |  |
| C#CCOc1ccc(C(=O)c2ccc(NC(=O)C(=O)NCCc3ccc(OC)cc3)cc2)cc1 | 16 | 0.12 | 8.5 | > 50 | 0.028 |  | half-life at 0.5 µM [8]: > 48 h; half-life at 0.5 µM (CYP4F11): 28 h; Drug uptake [9]: 870 nM |
| COc1ccc(CNC(=O)C(=O)Nc2ccc(Cl)cc2)cc1 |  |  |  |  |  |  | half-life at 0.5 µM [8]: > 48 h; Drug uptake [9]: 340 nM |
| Cc1ccccc1C(=O)c1ccc(C(=O)NC(=O)NCCc2ccc(O)cc2)cc1 |  |  |  |  | 1.5 | 57 |  |
| COc1ccc(CCNC(=O)c2ccc3ccccc3n2)cc1 | > 50 | > 50 | > 50 | > 50 | > 50 |  |  |
| CC(CNC(=O)C(=O)Nc1ccc(Cl)cc1)c1ccc(O)cc1 (stereo not given) | > 50 | > 50 | > 50 | > 50 | 4 | 28 |  |
| O=C(NCCc1ccc(O)cc1)C(=O)NC1CC1 | > 50 | > 50 | > 50 | > 50 | > 50 | 0 |  |
| COc1ccc(CCNC(=O)C(=O)Nc2cccc(C#N)c2)cc1 |  |  |  |  | 0.41 |  |  |
| COc1ccc(CCNC(=O)C(=O)Nc2ccc(C)c(OC)c2)cc1 |  |  |  |  | > 50 |  |  |
| COc1ccc(CCNC(=O)C(=O)Nc2cccnc2F)cc1 |  |  |  |  | > 50 |  |  |
| COc1ccc(CCNC(=O)NC(=O)c2ccc(Cl)cc2)cc1 |  |  |  |  | 0.15 |  |  |
| O=C(NCCc1ccc(O)cc1)NC(=O)c1ccc(COc2ccccc2)cc1 | 12 | 0.051 | 0.007 | 6.4 | 0.011 | 96 | half-life [5]: > 4 h |

Reference: ChEMBL document CHEMBL4251748, “Discovery of Cytochrome P450 4F11 Activated Inhibitors of Stearoyl Coenzyme A Desaturase” (J Med Chem, 2018)
